assay: recombinant UMI read abundance after kanamycin selection (control-corrected) (log10(CPM+1)); higher = more efficient recombination; extreme values may be limits of the assay; sequences stand for … in AGTGCAGAGAAAATCGGCCAGTTTTCTCTGCCTGCAGTCCGCATGCCGTGGGACCCCTTGGGTTCTAACCTGTTGCCTAGATTTATGCAGCGGACTGCCTTTCTCCCAAAGTGATAAACCGG…AGGTTGGTTTCACT; site = the 11-nt donor
How it was run: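 Sequencing read counts were converted to CPM, averaged over two replicates and scaled by control-derived factors. Results are given as log10(CPM+1). The reads covered the donor–target junction of recombinant UMIs from a pooled Escherichia coli screen of donor and donor-binding-loop pairs for the IS621 bridge recombinase.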
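Further: IS621 bridge recombinase in Escherichia coli cells against a fixed T5 target plasmid.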

Sequence | recombinant UMI read abundance (log10)
GGTACACCATGGACCGGTTTTCCCGGTAATCCGTATTTGAC (site AGTACACCTGT) | 0
GGTACACCATGGACCGGTTTTCCCGGTAATCCGTATTTGAC (site CGTACACCTGT) | 0
GGTACACCATGGACCGGTTTTCCCGGTAATCCGTATTTGAC (site GGTACACCTGT) | 0
GGTACACCATGGACCGGTTTTCCCGGTAATCCGTATTTGAC (site TGTACACCTGT) | 0
GGTACCTCATGGACCGGTTTTCCCGGTAATCCGTATTTGAG (site GGTACCTCTCT) | 0.374
GGTACCTCATGGACCGGTTTTCCCGGTAATCCGTATTTGTT (site GGTACATCTAA) | 0.0159
GGTACCTCATGGACCGGTTTTCCCGGTAATCCGTATTTGTT (site GGTACCTCTAA) | 0.187
GGTACCTCATGGACCGGTTTTCCCGGTAATCCGTATTTGTT (site GGTACGTCTAA) | 0.014
GGTACCTCATGGACCGGTTTTCCCGGTAATCCGTATTTGTT (site GGTACTTCTAA) | 0.00378
GGTAGAACATGGACCGGTTTTCCCGGTAATCCGTATTTGGC (site GATAGAACTGC) | 0
GGTAGAACATGGACCGGTTTTCCCGGTAATCCGTATTTGGC (site GCTAGAACTGC) | 0
GGTAGAACATGGACCGGTTTTCCCGGTAATCCGTATTTGGC (site GGTAGAACTGC) | 0.973
GGTAGAACATGGACCGGTTTTCCCGGTAATCCGTATTTGGC (site GTTAGAACTGC) | 0
GGTATACCATGGACCGGTTTTCCCGGTAATCCGTATTTGGT (site GGTATACCTAC) | 0.00474
GGTATTTCATGGACCGGTTTTCCCGGTAATCCGTATTTGCC (site GGTATTTCTGG) | 0
GGTCCACCATGGACCGGTTTTCCCGGTAATCCGTATTTGCT (site GGTCCACCTAG) | 0

Sequence | recombinant UMI read abundance (log10)
GGTCGGACATGGACCGGTTTTCCCGGTAATCCGTATTTGCG (site GGTCGGACTCG) | 1.29
GGTCTGTCATGGACCGGTTTTCCCGGTAATCCGTATTTGAA (site GGTCTGTCTTT) | 0.0119
GGTCTTACATGGACCGGTTTTCCCGGTAATCCGTATTTGAG (site GGTCTTACTCT) | 0.0687
GGTGCACCATGGACCGGTTTTCCCGGTAATCCGTATTTGCA (site GGAGCACCTTG) | 0.00431
GGTGCACCATGGACCGGTTTTCCCGGTAATCCGTATTTGCA (site GGCGCACCTTG) | 0.0224
GGTGCACCATGGACCGGTTTTCCCGGTAATCCGTATTTGCA (site GGGGCACCTTG) | 0
GGTGCACCATGGACCGGTTTTCCCGGTAATCCGTATTTGCA (site GGTGCACCTTG) | 0
GGTGCGTCATGGACCGGTTTTCCCGGTAATCCGTATTTGTT (site GGTACGTCTAA) | 0.0157
GGTGCGTCATGGACCGGTTTTCCCGGTAATCCGTATTTGTT (site GGTCCGTCTAA) | 0.0208
GGTGCGTCATGGACCGGTTTTCCCGGTAATCCGTATTTGTT (site GGTGCGTCTAA) | 0.668
GGTGCGTCATGGACCGGTTTTCCCGGTAATCCGTATTTGTT (site GGTTCGTCTAA) | 0.0103
GGTGCTGCATGGACCGGTTTTCCCGGTAATCCGTATTTGCT (site GGTGCTGCTAG) | 1.53
GGTGTAGCATGGACCGGTTTTCCCGGTAATCCGTATTTGGT (site GGTGTAGCTAC) | 0.0948
GGTGTGACATGGACCGGTTTTCCCGGTAATCCGTATTTGTG (site GGTGTGACTCA) | 0.68
GGTGTGTCATGGACCGGTTTTCCCGGTAATCCGTATTTGTG (site GGTGTGTCTCA) | 1.16
GGTTAGACATGGACCGGTTTTCCCGGTAATCCGTATTTGCC (site GGATAGACTGG) | 1.17

Source: the supplement of paper PMC11208160
